Structures are written as SMILES.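 Each compound was tested at five concentrations against cells in 96-well plates for 48 hours. GI50: concentration for 50% inhibition of growth. TGI marks complete inhibition of growth.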 Where only a bound is given, the exact number is not on record here.

Assay in all cases: NCI anticancer screen, dose series, 48 h
Test [1] relates to NCI-H23 lung.
Test [2] deals with HCC-2998 colon.
The subject of test [3] is OVCAR-8 ovarian.
Test [4] relates to M14 melanoma.
Test [5] relates to RXF 393 renal.
Test [6] deals with NCI-H522 lung.
Test [7] has as its system NCI/ADR-RES ovarian.
Test [8] has as its system BT-549 breast.
The test system of test [9] is HS 578T breast.
The subject of test [10] is DU-145 prostate.

Turning to `CC(C)(C)c1ccc2c(c1)S(=O)(=O)Nc1ccc(Cl)cc1NS(=O)(=O)c1cc(C(C)(C)C)ccc1OCCOCCOCCO2`, the TGI was > 100 µM in [1]; > 100 µM in [2]; > 100 µM in test [3]; > 100 µM in test [4]; 79.1 µM in test [5].

For `Cc1ccc(C)c(N2C/C(=N\NC(=O)CC#N)C(c3nc4ccccc4s3)C(=O)C2=O)c1` (stereo not drawn), the TGI in test [1], in test [2], in test [3], in test [4], in test [5] and in test [6] was > 100 µM throughout.

In the case of `COc1cccc(/C=N/[N-]C(=O)c2ccncc2)c1[O-].COc1cccc(/C=N/[N-]C(=O)c2ccncc2)c1[O-].[O]=[U](=[O])([OH2+])[OH2+]`, the GI50 in test [1] is 3.93 µM; in test [2] it was 12.8 µM; in [3] it was 5.11 µM; in [4], 5.47 µM; in [5], 6.11 µM; in test [6], 2.05 µM. Moreover, the TGI was > 70 µM in test [1]; > 100 µM in [2]; > 100 µM in [3]; > 61.4 µM in [4]; 25.3 µM in test [5]; 11 µM in test [6].

With `COC(=O)C1C(O)C(C(=O)OC)C(C)N(C)C1C` (stereo not drawn), the TGI in [1], in test [7], in [3], in test [4], in test [5] and in test [8] was > 100 µM each time.

As to `CCN1c2ccccc2-c2c3c1cc(C)cc3c1ccccc1[n+]2CC`, the TGI in test [1] turned out to be 4.08 µM; in test [2], 2.11 µM; in test [3] it was 1.86 µM; in [4] it was 3.74 µM; in [5], 9.51 µM; in test [6], 3.52 µM.

Regarding `Nc1ccccc1C(=O)/C=C/c1c(O)ccc2ccccc12`, the TGI in [1], in test [2], in test [3], in test [4], in [5] and in test [6] was > 100 µM throughout.

`Cc1[nH]c2ccccc2c1C1Cc2ccccc2N1C(=O)C#Cc1ccc([N+](=O)[O-])cc1` (stereo not drawn): the TGI in test [1], in test [2], in test [3], in test [4] and in test [5] was > 100 µM throughout.

Turning to `N#CC(=Nc1ccccc1N(C(=O)c1ccccc1)C(=O)c1ccccc1)c1ccccc1`, the TGI in test [1] was > 100 µM; in [2], > 100 µM; in [3], > 100 µM; in test [4] it was > 100 µM; in test [5] it was > 39.3 µM; in test [6] it was > 100 µM.

For the compound `COc1cc(/C=C2\[C@H]3c4c(c(OC)c(C)c(OC)c4OC)CC(C(=O)N2Cc2ccccc2)N3C)c(OC)c(C)c1OC`, the TGI is > 100 µM in test [1]; 62.8 µM in [2]; > 100 µM in test [3]; 36 µM in [4]; > 100 µM in test [5]; 30.2 µM in test [6].

For the compound `CC(C(=O)c1ccc(Cl)cc1)/C(=N/NC(=O)NN)C(=O)Nc1cccc(C(F)(F)F)c1` (stereo not drawn), the TGI in [1], in test [2], in [3], in test [4] and in test [5] was > 100 µM throughout.

On to `CCOC(=O)NC(=O)c1cn(C2CCCCC2)c(=O)[nH]c1=O`, for which the TGI in [1], in test [2], in test [3], in test [4] and in test [6] was > 100 µM in each case.

On to `COc1c(C)n(CCO)ccc1=O`, for which the TGI in test [3], in test [4], in test [5] and in [6] was > 100 µM throughout.

As to `Cc1ccccc1C1=[N+]([O-])c2ccc(Cl)cc2C1=O`, the TGI in test [1] is 32.2 µM; in [2], 29.4 µM; in test [3], 19.3 µM; in test [4], 29.9 µM; in test [5], 34.9 µM; in [6], 23.9 µM.

For `CCC1CN2CCc3cc(OC)c(OC)cc3C2CC1CC1c2cc(OC)c(OC)cc2CCN1C(=O)C1CCCN1` (stereo not drawn), the TGI is > 100 µM in [1]; 58.6 µM in [2]; > 100 µM in test [3]; 27.6 µM in test [4]; 73.8 µM in test [5]; 35.3 µM in [6].

For the compound `CCC(C)(O)c1cnc(CC(C)C)c(=O)n1O` (stereo not drawn), the TGI in [1], in [2], in test [3], in test [5], in test [8] and in test [9] was > 100 µM each time. For the same compound, the TGI in test [10] was > 100 µM.

On to `COc1cc2c(cc1O)CCN[C@]21CS[C@@H]2c3c(OC(C)=O)c(C)c4c(c3[C@H](COC1=O)N1[C@@H]2[C@H]2c3c(cc(C)c(OC)c3O)C[C@@H]([C@@H]1O)N2C)OCO4`, for which the TGI in test [1] worked out at 0.0057 µM; in [7], 2.61 µM; in test [2], 0.00652 µM; in [3], 4.83 µM; in test [4] it was 0.00383 µM; in test [5] it was 0.00401 µM. Further, the results for the TGI in test [8], in test [6] and in test [10] were 0.00612 µM, 0.00746 µM and 1 µM, respectively. Further, the GI50 is 0.00591 µM in test [7] and 0.00352 µM in test [2].

In the case of `O=C(CC(=O)C1CCOC1=O)C(=O)Nc1cccc(Cl)c1` (stereo not drawn), the TGI in [1], in [2], in test [3], in [4], in [5] and in [6] was > 100 µM in each case.

The record behind these values is PubChem BioAssay (NCI).
